Like-named read-outs stand apart in the source and are kept apart here.
What was measured:
[1] = tested on: Human cytomegalovirus (HCMV); assay: HCMV plaque reduction assay in MRC5 or Detroit 532 cells; type: cell-based; conditions: Human betaherpesvirus 5, MRC5, MRC5 or Detroit 532 cells
Method: (§1) Human cytomegalovirus (HCMV) was assayed in monolayers of either MRC5 cells (human embryonic lung) or Detroit 532 cells (human foreskin fibroblasts) in multiwell trays. Activity of compounds was determined in the plaque reduction assay, in which a cell monolayer was infected with a suspension of HCMV, and then overlaid with nutrient agarose in the form of a gel to ensure that there was no spread of virus throughout the culture. A range of concentrations of compound of known molarity was incorporated in the nutrient agarose overlay. Plaque numbers at each concentration were expressed as percentages of the control and a dose-response curve was drawn. From this curve the 50% inhibitory concentration (IC50) was estimated.

[2] = tested on: Varicella zoster virus (VZV); assay: VZV assay in MRC5 cells (similar to HCMV plaque reduction, without agarose overlay); type: cell-based
Method: as §1
Varicella zoster virus (VZV) was assayed in MRC5 cells by a similar method to that for HCMV with the omission of the agarose overlay.

[3] = tested on: Herpes simplex type 1 (HSV1); assay: HSV1 assay in Vero cells (similar to HCMV plaque reduction assay); type: cell-based; conditions: read-out: IC50 HSV1
Method: as §1
Herpes simplex type 1 (HSV1) was assayed in Vero cells in a similar method to that described for the HCMV assay.

[4] = Cell toxicity: cell growth inhibition assay in Vero cells (MTT uptake); type: cell-based; conditions: monkey, 50% inhibition of cell viability at 96 hours, read-out: CCID50 at 96 hr.
Method: Cell toxicity was assessed in a cell growth inhibition assay. Subconfluent cultures of Vero cells grown on 96-well microtiter dishes were exposed to different dilutions of drug, and cell viability determined daily on replicate cultures using uptake of a tetrazolium dye (MTT). The concentration required for a 50% inhibition of cell viability at 96 hours is termed CCID50.

certain DNA viruses = assay: Antiviral activity against certain DNA viruses (general statement); conditions: DNA viruses other than vaccinia and herpes simplex
vaccinia = conditions: Walker et al. 1978; UK 1 601 020; cited from earlier work
herpes simplex viruses = conditions: Walker et al. 1978; UK 1 601 020; cited from earlier work
[5] = Human alphaherpesvirus 3, MRC5, MRC5 cells, read-out: IC50 VZV
[6] = Human alphaherpesvirus 1, Vero cells

Compound | IC50 [1] [nM] | IC50 [2, 5] [µM] | IC50 [3, 6] [µM] | CC50 at 96 h ([4]; vero cells) [µM] | other results
C#Cc1cn([C@H]2C[C@H](OC(=O)c3ccccc3)[C@@H](COC(=O)c3ccccc3)O2)c(=O)[nH]c1=O [Benzoyl/Benzoyl, 2'-Deoxy-3',5'-di-O-benzoyl-5-ethynyluridine] | 4700 | > 20 | > 20 | > 100 | –
C#Cc1cn([C@H]2C[C@H](OC(=O)C3CC3)[C@@H](COC(=O)C3CC3)O2)c(=O)[nH]c1=O [Cyclopropanoyl/Cyclopropanoyl, 2'-Deoxy-3',5'-di-O-cyclopropanoyl-5-ethynyluridine] | 2000 | 24 | > 20 | > 100 | –
C#Cc1cn([C@H]2C[C@H](O)[C@@H](CO)O2)c(=O)[nH]c1=O [H/H, 2'-Deoxy-5-ethynyluridine] | – | – | – | – | IC50 ([2]; Human alphaherpesvirus 3, MRC5, read-out: IC50 VZV): 0.06 to 0.3 µM; IC50 ([3]; Human alphaherpesvirus 1, Vero): 4.5 µM; CC50 at 96 h [4]: 0.3 to 3 µM; Activity against certain DNA viruses (certain DNA viruses): very potent activity; Activity against vaccinia (vaccinia): only moderate activity; Activity against herpes simplex viruses (herpes simplex viruses): only moderate activity
C#Cc1cn([C@H]2C[C@H](O)[C@@H](COC(=O)c3ccc(C)cc3)O2)c(=O)[nH]c1=O [H/p-Toluoyl, 2'-Deoxy-5-ethynyl-5'-O-toluoyluridine] | 3400 | > 20 | > 20 | 0.8 | –
C#Cc1cn([C@H]2C[C@H](OC(=O)c3ccc(C)cc3)[C@@H](COC(=O)c3ccc(C)cc3)O2)c(=O)[nH]c1=O [p-Toluoyl/p-Toluoyl, 2'-Deoxy-3',5'-di-O-p-toluoyl-5-ethynyluridine] | – | > 20 | > 20 | > 100 | –
C#Cc1cn([C@H]2C[C@H](OC(=O)c3ccc(OC)cc3)[C@@H](COC(=O)c3ccc(OC)cc3)O2)c(=O)[nH]c1=O [p-Anisoyl/p-Anisoyl, 2'-Deoxy-3',5'-di-O-p-anisoyl-5-ethynyluridine] | 20700 | > 20 | > 20 | > 100 | –
C#Cc1cn([C@H]2C[C@H](O)[C@@H](COC(=O)c3ccccc3)O2)c(=O)[nH]c1=O [H/Benzoyl, 5'-O-Benzoyl-2'-deoxy-5-ethynyluridine] | 300 | 0.7 | > 20 | 1.3 | –
C#Cc1cn([C@H]2C[C@H](O)[C@@H](COS(=O)(=O)c3ccc(C)cc3)O2)c(=O)[nH]c1=O [H/p-Tosyl] | 5600 | – | – | – | –
C#Cc1cn([C@H]2C[C@H](O)[C@@H](COC(=O)C(C)(C)C)O2)c(=O)[nH]c1=O [H/Pivaloyl, 2'-Deoxy-5-ethynyl-5'-O-pivaloyluridine] | 400 | 0.6 | > 20 | 10.2 | –
C#Cc1cn([C@H]2C[C@H](OC(=O)C(C)(C)C)[C@@H](COC(=O)C(C)(C)C)O2)c(=O)[nH]c1=O [Pivaloyl/Pivaloyl, 2'-Deoxy-5-ethynyl-3',5'-di-O-pivaloyl uridine] | 2000 | 5.5 | > 20 | > 100 | –
C#Cc1cn([C@H]2C[C@H](O)[C@@H](COC(=O)c3ccc(OC)cc3)O2)c(=O)[nH]c1=O [H/p-Anisoyl, 5'-O-p-Anisoyl-2'-Deoxy-5-ethynyluridine] | 2800 to 3700 | > 20 | > 20 | 3 | –
C#Cc1cn([C@H]2C[C@H](OS(C)(=O)=O)[C@@H](COS(C)(=O)=O)O2)c(=O)[nH]c1=O [Methanesulphonyl/Methanesulphonyl, 2'-Deoxy-3'-5'-di-O-methanesulphonyl-5-ethynyluridine] | > 50000 | 16 | > 20 | – | –
C#Cc1cn([C@H]2C[C@H](OC(=O)c3cccc(Cl)c3)[C@@H](COC(=O)c3cccc(Cl)c3)O2)c(=O)[nH]c1=O [m-Cl Benzoyl/m-Cl Benzoyl] | 2700 | 1.1 | – | > 100 | –
C#Cc1cn([C@H]2C[C@H](O)[C@@H](COC(=O)c3cccc(Cl)c3)O2)c(=O)[nH]c1=O [H/m-Cl Benzoyl] | 460 | < 0.2 | – | 19 | –
C#Cc1cn([C@H]2C[C@H](O)[C@@H](COC(=O)CCCCCCC)O2)c(=O)[nH]c1=O [H/Octanoyl, 2'-Deoxy-5-ethynyl-5'-O-octanoyluridine] | 2200 | < 0.2 | – | 1.8 | –
C#Cc1cn([C@H]2C[C@H](O)[C@@H](COC(=O)C3CC3)O2)c(=O)[nH]c1=O [H/Cyclopropanoyl, 5'-O-Cyclopropanoyl-2'-deoxy-5-ethynyluridine] | 900 | 6.5 | > 20 | 15 | –
C#Cc1cn([C@H]2C[C@H](OC(C)=O)[C@@H](COC(C)=O)O2)c(=O)[nH]c1=O [Acetyl/Acetyl, 2'-Deoxy-3'-5'-di-O-acetyl-5-ethynyluridine] | – | – | > 20 | – | –

From patent US4863906A, “2'-deoxy-5-ethynyluridine-3',5'-diestens for treatment of VZV and CMV infections” (Burroughs Wellcome Co., priority 1985, dated 1989)
